Tests used:
morningglory = experiment: Test A pre-/postemergence greenhouse test; type: in vivo, Ipomoea spp.; details: for Plant response rating, Morningglory: 0 to 100 scale where 0 is no effect and 100 is complete control; for Morningglory plant response rating: 0 to 100 scale
In short: (§1)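 Pots of loam–sand soil sown with the test species are sprayed preemergence on the soil surface; emerged seedlings (1–2 leaves, 2–10 cm) are sprayed postemergence at the same time. The vehicle is a non-phytotoxic solvent mixture with surfactant. Injury is scored visually after ~10 d in greenhouse.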

redroot pigweed = experiment: Test A pre-/postemergence greenhouse test; type: in vivo, Amaranthus retroflexus; details: for Plant response rating, Pigweed: 0 to 100 scale where 0 is no effect and 100 is complete control; for Pigweed plant response rating: 0 to 100 scale
In short: as §1

wheat = experiment: Test A pre-/postemergence greenhouse test; type: in vivo, Triticum aestivum; details: for Plant response rating, Wheat: 0 to 100 scale where 0 is no effect and 100 is complete control; for Wheat plant response rating: 0 to 100 scale
In short: as §1

barnyardgrass [1] = experiment: Test A pre-/postemergence greenhouse test; type: in vivo, Echinochloa crus-galli; details: for Plant response rating, Barnyardgrass: 0 to 100 scale where 0 is no effect and 100 is complete control; for Barnyardgrass plant response rating: 0 to 100 scale
In short: as §1

duck salad = experiment: Test C flooded paddy test; type: in vivo, Heteranthera limosa; details: Flood
In short: (§2)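 Flooded 3 cm over soil; compound into paddy water; depth kept constant. Greenhouse 13–15 d.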

umbrella sedge = experiment: Test C flooded paddy test; type: in vivo, Cyperus difformis; details: Flood
In short: as §2

giant foxtail = experiment: Test A pre-/postemergence greenhouse test; type: in vivo, Setaria faberi; details: for Plant response rating, Foxtail, Giant: 0 to 100 scale where 0 is no effect and 100 is complete control; for Foxtail, Giant plant response rating: 0 to 100 scale
In short: as §1

corn = experiment: Test A pre-/postemergence greenhouse test; type: in vivo, Zea mays; details: for Plant response rating, Corn: 0 to 100 scale where 0 is no effect and 100 is complete control; for Corn plant response rating: 0 to 100 scale
In short: as §1

crabgrass = experiment: Test A pre-/postemergence greenhouse test; type: in vivo, Digitaria sanguinalis; details: for Plant response rating, Crabgrass, Large: 0 to 100 scale where 0 is no effect and 100 is complete control; for Crabgrass, Large plant response rating: 0 to 100 scale
In short: as §1

rice = experiment: Test C flooded paddy test; type: in vivo, Oryza sativa; details: Flood
In short: as §2

barnyardgrass [2] = experiment: Test C flooded paddy test; type: in vivo, Echinochloa crus-galli; details: Flood
In short: as §2

velvetleaf = experiment: Test A pre-/postemergence greenhouse test; type: in vivo, Abutilon theophrasti; details: for Plant response rating, Velvetleaf: 0 to 100 scale where 0 is no effect and 100 is complete control; for Velvetleaf plant response rating: 0 to 100 scale
In short: as §1

[3] = Postemergence, 500 g ai/ha, 0 is no effect, 100 is complete control
[4] = Preemergence, 125 g ai/ha, 0 no effect, 100 complete control
[5] = 62 g ai/ha, scale 0 to 100, 0 no effect, 100 complete control, 13 to 15 days
[6] = 250 g ai/ha, scale 0 to 100, 0 no effect, 100 complete control, 13 to 15 days
[7] = 31 g ai/ha, scale 0 to 100 (0 no effect, 100 complete control)
[8] = 125 g ai/ha, scale 0 to 100, 0 no effect, 100 complete control, 13 to 15 days

O=S(=O)(Cc1c(C(F)(F)F)nn(CC(F)(F)F)c1Cl)c1ccc(Cl)c[n+]1[O-] [Compound 50]
Plant response rating, Morningglory (morningglory; Postemergence, 125 g ai/ha): 30
Morningglory plant response rating (morningglory; [3]): 30
Morningglory plant response rating (morningglory; [4]): 30
Plant response rating, Morningglory (morningglory; Preemergence, 500 g ai/ha): 40
Plant response rating, Pigweed (redroot pigweed; Postemergence, 125 g ai/ha): 20
Pigweed plant response rating (redroot pigweed; [3]): 30
Pigweed plant response rating (redroot pigweed; [4]): 80
Plant response rating, Pigweed (redroot pigweed; Preemergence, 500 g ai/ha): 100
Plant response rating, Wheat (wheat; Postemergence, 125 g ai/ha): 0
Wheat plant response rating (wheat; [3]): 0
Wheat plant response rating (wheat; [4]): 0
Plant response rating, Wheat (wheat; Preemergence, 500 g ai/ha): 0
Plant response rating, Barnyardgrass (barnyardgrass [1]; Postemergence, 125 g ai/ha): 60
Barnyardgrass plant response rating (barnyardgrass [1]; [3]): 70
Barnyardgrass plant response rating (barnyardgrass [1]; [4]): 70
Plant response rating, Barnyardgrass (barnyardgrass [1]; Preemergence, 500 g ai/ha): 90
Plant response rating, Ducksalad (duck salad; [5]): 0
Plant response rating, Ducksalad (duck salad; [6]): 40
Plant response rating, Sedge, Umbrella (umbrella sedge; [6]): 40
Plant response rating, Foxtail, Giant (giant foxtail; Postemergence, 125 g ai/ha): 70
Foxtail, Giant plant response rating (giant foxtail; [3]): 70
Foxtail, Giant plant response rating (giant foxtail; [4]): 80
Plant response rating, Foxtail, Giant (giant foxtail; Preemergence, 500 g ai/ha): 90
Plant response rating, Corn (corn; Postemergence, 125 g ai/ha): 0
Corn plant response rating (corn; [3]): 0
Corn plant response rating (corn; [4]): 0
Plant response rating, Corn (corn; Preemergence, 500 g ai/ha): 0
Plant response rating, Crabgrass, Large (crabgrass; Postemergence, 125 g ai/ha): 60
Crabgrass, Large plant response rating (crabgrass; [3]): 70
Crabgrass, Large plant response rating (crabgrass; [4]): 60
Plant response rating, Crabgrass, Large (crabgrass; Preemergence, 500 g ai/ha): 90
Plant response rating, Rice (rice; [5]): 0
Plant response rating, Rice (rice; [6]): 30
Plant response rating, Barnyardgrass (barnyardgrass [2]; [5]): 0
Plant response rating, Barnyardgrass (barnyardgrass [2]; [6]): 45
Plant response rating, Velvetleaf (velvetleaf; Postemergence, 125 g ai/ha): 0
Velvetleaf plant response rating (velvetleaf; [3]): 0
Velvetleaf plant response rating (velvetleaf; [4]): 0
Plant response rating, Velvetleaf (velvetleaf; Preemergence, 500 g ai/ha): 0

Cn1nc(C(F)(F)F)c(C[S+]([O-])c2c(F)ccc[n+]2[O-])c1Cl (stereo not drawn) [Compound 52]
Plant response rating, Morningglory (morningglory; Postemergence, 125 g ai/ha): 0
Morningglory plant response rating (morningglory; [3]): 20
Morningglory plant response rating (morningglory; [4]): 0
Plant response rating, Morningglory (morningglory; Preemergence, 500 g ai/ha): 40
Plant response rating, Pigweed (redroot pigweed; Postemergence, 125 g ai/ha): 40
Pigweed plant response rating (redroot pigweed; [3]): 70
Plant response rating, Pigweed (redroot pigweed; Preemergence, 500 g ai/ha): 100
Plant response rating, Wheat (wheat; Postemergence, 125 g ai/ha): 0
Wheat plant response rating (wheat; [3]): 50
Wheat plant response rating (wheat; [4]): 0
Plant response rating, Wheat (wheat; Preemergence, 500 g ai/ha): 0
Plant response rating, Barnyardgrass (barnyardgrass [1]; Postemergence, 125 g ai/ha): 40
Barnyardgrass plant response rating (barnyardgrass [1]; [3]): 70
Barnyardgrass plant response rating (barnyardgrass [1]; [4]): 10
Plant response rating, Barnyardgrass (barnyardgrass [1]; Preemergence, 500 g ai/ha): 80
Plant response rating, Ducksalad (duck salad; [7]): 0
Plant response rating, Ducksalad (duck salad; [5]): 0
Plant response rating, Ducksalad (duck salad; [8]): 40
Plant response rating, Ducksalad (duck salad; [6]): 60
Plant response rating, Sedge, Umbrella (umbrella sedge; [7]): 0
Plant response rating, Sedge, Umbrella (umbrella sedge; [8]): 40
Plant response rating, Sedge, Umbrella (umbrella sedge; [6]): 85
Plant response rating, Foxtail, Giant (giant foxtail; Postemergence, 125 g ai/ha): 40
Foxtail, Giant plant response rating (giant foxtail; [3]): 60
Foxtail, Giant plant response rating (giant foxtail; [4]): 30
Plant response rating, Foxtail, Giant (giant foxtail; Preemergence, 500 g ai/ha): 90
Plant response rating, Corn (corn; Postemergence, 125 g ai/ha): 0
Corn plant response rating (corn; [3]): 30
Corn plant response rating (corn; [4]): 0
Plant response rating, Corn (corn; Preemergence, 500 g ai/ha): 0
Plant response rating, Crabgrass, Large (crabgrass; Postemergence, 125 g ai/ha): 30
Crabgrass, Large plant response rating (crabgrass; [3]): 40
Crabgrass, Large plant response rating (crabgrass; [4]): 0
Plant response rating, Crabgrass, Large (crabgrass; Preemergence, 500 g ai/ha): 40
Plant response rating, Rice (rice; [7]): 0
Plant response rating, Rice (rice; [5]): 0
Plant response rating, Rice (rice; [8]): 0
Plant response rating, Rice (rice; [6]): 0
Plant response rating, Barnyardgrass (barnyardgrass [2]; [7]): 0
Plant response rating, Barnyardgrass (barnyardgrass [2]; [5]): 0
Plant response rating, Barnyardgrass (barnyardgrass [2]; [8]): 0
Plant response rating, Barnyardgrass (barnyardgrass [2]; [6]): 0
Plant response rating, Velvetleaf (velvetleaf; Postemergence, 125 g ai/ha): 50
Velvetleaf plant response rating (velvetleaf; [3]): 60
Velvetleaf plant response rating (velvetleaf; [4]): 0
Plant response rating, Velvetleaf (velvetleaf; Preemergence, 500 g ai/ha): 0

Cn1nc(C(F)(F)F)c(CS(=O)(=O)c2ccc(F)c[n+]2[O-])c1Cl [Compound 53]
Plant response rating, Morningglory (morningglory; Postemergence, 125 g ai/ha): 20
Morningglory plant response rating (morningglory; [3]): 30
Morningglory plant response rating (morningglory; [4]): 30
Plant response rating, Morningglory (morningglory; Preemergence, 500 g ai/ha): 70
Plant response rating, Pigweed (redroot pigweed; Postemergence, 125 g ai/ha): 20
Pigweed plant response rating (redroot pigweed; [3]): 50
Pigweed plant response rating (redroot pigweed; [4]): 100
Plant response rating, Pigweed (redroot pigweed; Preemergence, 500 g ai/ha): 100
Plant response rating, Wheat (wheat; Postemergence, 125 g ai/ha): 0
Wheat plant response rating (wheat; [3]): 0
Wheat plant response rating (wheat; [4]): 0
Plant response rating, Wheat (wheat; Preemergence, 500 g ai/ha): 0
Plant response rating, Barnyardgrass (barnyardgrass [1]; Postemergence, 125 g ai/ha): 60
Barnyardgrass plant response rating (barnyardgrass [1]; [3]): 80
Barnyardgrass plant response rating (barnyardgrass [1]; [4]): 50
Plant response rating, Barnyardgrass (barnyardgrass [1]; Preemergence, 500 g ai/ha): 80
Plant response rating, Ducksalad (duck salad; [7]): 20
Plant response rating, Ducksalad (duck salad; [5]): 60
Plant response rating, Ducksalad (duck salad; [8]): 100
Plant response rating, Ducksalad (duck salad; [6]): 100
Plant response rating, Sedge, Umbrella (umbrella sedge; [7]): 20
Plant response rating, Sedge, Umbrella (umbrella sedge; [8]): 80
Plant response rating, Sedge, Umbrella (umbrella sedge; [6]): 90
Plant response rating, Foxtail, Giant (giant foxtail; Postemergence, 125 g ai/ha): 80
Foxtail, Giant plant response rating (giant foxtail; [3]): 90
Foxtail, Giant plant response rating (giant foxtail; [4]): 60
Plant response rating, Foxtail, Giant (giant foxtail; Preemergence, 500 g ai/ha): 80
Plant response rating, Corn (corn; Postemergence, 125 g ai/ha): 0
Corn plant response rating (corn; [3]): 0
Corn plant response rating (corn; [4]): 0
Plant response rating, Corn (corn; Preemergence, 500 g ai/ha): 0
Plant response rating, Crabgrass, Large (crabgrass; Postemergence, 125 g ai/ha): 40
Crabgrass, Large plant response rating (crabgrass; [3]): 80
Crabgrass, Large plant response rating (crabgrass; [4]): 60
Plant response rating, Crabgrass, Large (crabgrass; Preemergence, 500 g ai/ha): 90
Plant response rating, Rice (rice; [7]): 0
Plant response rating, Rice (rice; [5]): 25
Plant response rating, Rice (rice; [8]): 60
Plant response rating, Rice (rice; [6]): 75
Plant response rating, Barnyardgrass (barnyardgrass [2]; [7]): 0
Plant response rating, Barnyardgrass (barnyardgrass [2]; [5]): 0
Plant response rating, Barnyardgrass (barnyardgrass [2]; [8]): 60
Plant response rating, Barnyardgrass (barnyardgrass [2]; [6]): 80
Plant response rating, Velvetleaf (velvetleaf; Postemergence, 125 g ai/ha): 0
Velvetleaf plant response rating (velvetleaf; [3]): 0
Velvetleaf plant response rating (velvetleaf; [4]): 0
Plant response rating, Velvetleaf (velvetleaf; Preemergence, 500 g ai/ha): 0

— patent US20100298141A1, “SUBSTITUTED PYRIDINE N-OXIDE HERBICIDES” (E. I. DU PONT DE NEMOURS AND COMPANY, priority 2007, published 2010)
